Common to all, as to assay: microbe, parasite or virus in culture
Assay [1] concerns T1, Staphylococcus aureus PB0603.
T1 construct: PB0603
Also noted: species or system Staphylococcus aureus clinical blood isolates and ATCC 29213; Broth microdilution MIC in cation-adjusted Mueller-Hinton broth with 50 ug/mL CaCl2, EUCAST reading, 37 C. The conditions noted are these: PB0603, 16 h, replicate MIC, MHB + 50 ug/mL CaCl2. The protocol:
(§1) MICs were measured in cation-adjusted Mueller-Hinton broth (MHB) supplemented with 50 μg/mL CaCl2 (MHB-Ca^2+) via broth microdilution in 96-well plates with an inoculum of ∼5 × 10^5 CFU per mL. Antibiotic test concentrations ranged from 0.0625 μg/mL to 32 μg/mL by 2-fold dilutions. Plates were incubated at 37°C for 16 h without shaking, and results were interpreted in accordance with European Committee on Antimicrobial Susceptibility Testing reading guidelines ([72]). S. aureus ATCC 29213 was used as a quality-control strain.

Assay [2] has as its system T2, Staphylococcus aureus PB0102.
T2 construct: PB0102
Also noted: species or system Staphylococcus aureus clinical blood isolates and ATCC 29213; Broth microdilution MIC in cation-adjusted Mueller-Hinton broth with 50 ug/mL CaCl2, EUCAST reading, 37 C. Particulars: PB0102, 16 h, replicate MIC, MHB + 50 ug/mL CaCl2. Here is the method:
as §1

The subject of assay [3] is T3, Staphylococcus aureus PB0101.
T3 construct: PB0101
Also noted: species or system Staphylococcus aureus clinical blood isolates and ATCC 29213; Broth microdilution MIC in cation-adjusted Mueller-Hinton broth with 50 ug/mL CaCl2, EUCAST reading, 37 C. Particulars: PB0101, 16 h, replicate MIC, MHB + 50 ug/mL CaCl2. Here is the method:
as §1

Assay [4] concerns T4, Staphylococcus aureus PB0207.
T4 construct: PB0207
Set-up: species or system Staphylococcus aureus clinical blood isolates and ATCC 29213; Broth microdilution MIC in cation-adjusted Mueller-Hinton broth with 50 ug/mL CaCl2, EUCAST reading, 37 C. Particulars: PB0207, 16 h, replicate MIC, MHB + 50 ug/mL CaCl2. Here is the method:
as §1

The subject of assay [5] is T5, Staphylococcus aureus PB0804.
T5 construct: PB0804
Also noted: species or system Staphylococcus aureus clinical blood isolates and ATCC 29213; Broth microdilution MIC in cation-adjusted Mueller-Hinton broth with 50 ug/mL CaCl2, EUCAST reading, 37 C. Particulars: PB0804, 16 h, replicate MIC, MHB + 50 ug/mL CaCl2. The protocol: as §1

Assay [6] has as its system T6, Staphylococcus aureus PB0911.
T6 construct: PB0911
Also noted: species or system Staphylococcus aureus clinical blood isolates and ATCC 29213; Broth microdilution MIC in cation-adjusted Mueller-Hinton broth with 50 ug/mL CaCl2, EUCAST reading, 37 C. Particulars: PB0911, 16 h, replicate MIC, MHB + 50 ug/mL CaCl2. The protocol: as §1

Assay [7] relates to T7, Staphylococcus aureus PB0704.
T7 construct: PB0704
Set-up: Broth microdilution MIC in cation-adjusted MHB-Ca2+, growth inhibition per EUCAST reading. The conditions noted are these: PB0704, 16 h. Here is the method: (§2) MICs were measured in cation-adjusted Mueller-Hinton broth (MHB) supplemented with 50 μg/mL CaCl2 (MHB-Ca^2+) via broth microdilution in 96-well plates with an inoculum of ∼5 × 10^5 CFU per mL. Antibiotic test concentrations ranged from 0.0625 μg/mL to 32 μg/mL by 2-fold dilutions. Plates were incubated at 37°C for 16 h without shaking, and results were interpreted in accordance with European Committee on Antimicrobial Susceptibility Testing reading guidelines ([72]). S. aureus ATCC 29213 was used as a quality-control strain. TCA cycle defects have been shown previously to cause antibiotic tolerance in laboratory strains of methicillin-sensitive S. aureus (MSSA) ([13], [16]). […] To test this hypothesis, we complemented three of the clinical isolates harboring loss-of-function citZ mutations with either wild-type citZ (pOS1-citZ) or empty vector (pOS1) and then measured bacterial survival through time after exposure to ceftaroline, daptomycin, vancomycin, or the combination of daptomycin plus ceftaroline (Fig. 3). These antibiotics were chosen for their clinical relevance in the treatment of severe MRSA infection.

Assay [8] has as its system T8, Staphylococcus aureus PB0601.
T8 construct: PB0601
Also noted: Broth microdilution MIC in cation-adjusted MHB-Ca2+, growth inhibition per EUCAST reading. The conditions noted are these: PB0601, 16 h. The protocol:
as §2

Assay [9] deals with T9, Staphylococcus aureus PB0905.
T9 construct: PB0905
Also noted: Broth microdilution MIC in cation-adjusted MHB-Ca2+, growth inhibition per EUCAST reading. The conditions noted are these: PB0905, 16 h. The protocol:
as §2

The test system of assay [10] is T10, Staphylococcus aureus PB1103.
T10 construct: PB1103
Also noted: Broth microdilution MIC in cation-adjusted MHB-Ca2+, growth inhibition per EUCAST reading. The conditions noted are these: PB1103, 16 h. The protocol: as §2

The test system of assay [11] is T11, Staphylococcus aureus PB1509.
T11 construct: PB1509
Set-up: Broth microdilution MIC in cation-adjusted MHB-Ca2+, growth inhibition per EUCAST reading. The conditions noted are these: PB1509, 16 h. Here is the method: as §2

Assay [12] concerns T12, Staphylococcus aureus PB1801.
T12 construct: PB1801
Also noted: Broth microdilution MIC in cation-adjusted MHB-Ca2+, growth inhibition per EUCAST reading. Particulars: PB1801, 16 h. The protocol:
as §2

Assay [13] has as its system T13, Staphylococcus aureus PB1505.
T13 construct: PB1505
Set-up: Broth microdilution MIC in cation-adjusted MHB-Ca2+, growth inhibition per EUCAST reading. Particulars: PB1505, 16 h. Here is the method:
as §2

Assay [14] deals with T14, Staphylococcus aureus PB0112.
T14 construct: PB0112
Set-up: Broth microdilution MIC in cation-adjusted MHB-Ca2+, growth inhibition per EUCAST reading. The conditions noted are these: PB0112, 16 h. Here is the method:
as §2

Assay [15] has as its system T15, Staphylococcus aureus PB0412.
T15 construct: PB0412
Set-up: Broth microdilution MIC in cation-adjusted MHB-Ca2+, growth inhibition per EUCAST reading. Particulars: PB0412, 16 h. The protocol:
as §2

Where “and” joins values, the source holds several entries; their conditions need not be identical. Equal entries are not always repeated.

As to `CCO/N=C(\C(=O)N[C@@H]1C(=O)N2C(C(=O)[O-])=C(Sc3nc(-c4cc[n+](C)cc4)cs3)CS[C@H]12)c1nsc(N)n1` [Ceftaroline], the MIC in [1] came to 0.25 µg/mL; in assay [2], 0.5 µg/mL; in assay [3], 0.5 µg/mL; in [4], 0.5 µg/mL; in [5] it was 0.5 µg/mL; in assay [6], 0.5 µg/mL. Further, the MIC in assay [7] (replicate 1) is 0.25 µg/mL; in assay [7] (replicate 2), 0.25 µg/mL; in assay [8] (replicate 1) it was 0.25 µg/mL; in assay [8] (replicate 2) it was 0.25 µg/mL; in assay [9] (replicate 1), 0.5 µg/mL; in assay [9] (replicate 2), 0.5 µg/mL. In addition, the MIC in assay [10] (replicate 1), in assay [10] (replicate 2), in assay [11] (replicate 1), in [11] (replicate 2), in assay [12] (replicate 1) and in assay [12] (replicate 2) was 0.5 µg/mL each time. Moreover, the MIC in assay [13] (replicate 1), in [13] (replicate 2), in assay [14] (replicate 1), in [14] (replicate 2), in assay [15] (replicate 1) and in assay [15] (replicate 2) was 0.5 µg/mL in each case.

As for `CCCCCCCCCC(=O)N[C@@H](Cc1c[nH]c2ccccc12)C(=O)N[C@H](CC(N)=O)C(=O)N[C@@H](CC(=O)O)C(=O)N[C@@H]1C(=O)NCC(=O)N[C@@H](CCCN)C(=O)N[C@@H](CC(=O)O)C(=O)N[C@H](C)C(=O)N[C@@H](CC(=O)O)C(=O)NCC(=O)N[C@H](CO)C(=O)N[C@@H]([C@H](C)CC(=O)O)C(=O)N[C@@H](CC(=O)c2ccccc2N)C(=O)O[C@@H]1C` [Daptomycin], the MIC was 2 µg/mL in assay [1]; 2 µg/mL in [2]; 1 µg/mL in assay [3]; 1 µg/mL in [4]; 1 µg/mL in assay [5]; 2 µg/mL and 1 µg/mL in assay [6]. Also, the MIC in [7] (replicate 1) was found to be 1 µg/mL; in assay [7] (replicate 2) it was 1 µg/mL; in [8] (replicate 1), 1 µg/mL; in assay [8] (replicate 2), 1 µg/mL; in assay [9] (replicate 1) it was 2 µg/mL; in assay [9] (replicate 2), 2 µg/mL. The MIC in assay [10] (replicate 1) was found to be 1 µg/mL; in assay [10] (replicate 2), 1 µg/mL; in assay [11] (replicate 1), 2 µg/mL; in assay [11] (replicate 2), 2 µg/mL; in [12] (replicate 1), 2 µg/mL; in assay [12] (replicate 2) it was 2 µg/mL. Also, the MIC in [13] (replicate 1) is 1 µg/mL; in [13] (replicate 2), 2 µg/mL; in [14] (replicate 1) it was 1 µg/mL; in [14] (replicate 2), 1 µg/mL; in assay [15] (replicate 1), 2 µg/mL; in [15] (replicate 2) it was 2 µg/mL.

With `CC(=O)NC[C@H]1CN(c2ccc(N3CCOCC3)c(F)c2)C(=O)O1` [Linezolid], the MIC in assay [1] amounted to 4 µg/mL; in [2] it was 4 µg/mL; in assay [3] it was 4 µg/mL; in assay [4], 4 µg/mL; in [5] it was 2 µg/mL; in assay [6] it was 4 µg/mL. Besides, the MIC in assay [7] (replicate 1), in assay [7] (replicate 2), in [8] (replicate 1), in [8] (replicate 2), in [9] (replicate 1) and in assay [9] (replicate 2) was 4 µg/mL each time. The MIC in assay [10] (replicate 1), in [10] (replicate 2), in assay [11] (replicate 1), in assay [11] (replicate 2), in [12] (replicate 1) and in assay [12] (replicate 2) was 4 µg/mL throughout. Besides, the MIC in [13] (replicate 1), in assay [13] (replicate 2), in [14] (replicate 1), in [14] (replicate 2), in assay [15] (replicate 1) and in assay [15] (replicate 2) was 4 µg/mL in each case.

As to `CN[C@H](CC(C)C)C(=O)N[C@H]1C(=O)N[C@@H](CC(N)=O)C(=O)N[C@H]2C(=O)N[C@H]3C(=O)N[C@H](C(=O)N[C@H](C(=O)O)c4cc(O)cc(O)c4-c4cc3ccc4O)[C@H](O)c3ccc(c(Cl)c3)Oc3cc2cc(c3O[C@@H]2O[C@H](CO)[C@@H](O)[C@H](O)[C@H]2O[C@H]2C[C@](C)(N)[C@H](O)[C@H](C)O2)Oc2ccc(cc2Cl)[C@H]1O` [Vancomycin], the MIC was 4 µg/mL and 2 µg/mL in assay [1]; 2 µg/mL in assay [2]; 2 µg/mL in [3]; 2 µg/mL and 1 µg/mL in assay [4]; 2 µg/mL in [5]; 2 µg/mL in assay [6]. The MIC in assay [7] (replicate 1), in assay [7] (replicate 2), in assay [8] (replicate 1), in assay [8] (replicate 2), in assay [9] (replicate 1) and in assay [9] (replicate 2) was 2 µg/mL throughout. Moreover, the MIC in assay [10] (replicate 1), in assay [10] (replicate 2), in assay [11] (replicate 1), in assay [11] (replicate 2), in assay [12] (replicate 1) and in assay [12] (replicate 2) was 2 µg/mL in each case. Also, the MIC in [13] (replicate 1), in assay [13] (replicate 2), in assay [14] (replicate 1), in [14] (replicate 2), in assay [15] (replicate 1) and in [15] (replicate 2) was 2 µg/mL throughout.
